Results taken from ChEMBL document CHEMBL3046582, “Antifeedant activity of sesquiterpenes from celastraceae” (1997).
Active and inactive are the calls of the source. The rule behind the calls is not given here.

Key:
Spodoptera littoralis [1] = assay: Insecticidal activity against newly ecdysed fifth-instar larval stage of Spodoptera littoralis in compound-pretreated lettuce leaf disks assessed as mortality at 3 hr post-drug exposure; format: functional
Spodoptera littoralis [2] = assay: Antifeedant activity against newly ecdysed fifth-instar larval stage of Spodoptera littoralis in compound-pretreated lettuce leaf disks assessed as consumed area of leaf disks measured at 30 min intervals for 4-5 hr post-drug exposure by choice test; format: functional, organism-based
Spodoptera littoralis [3] = assay: Antifeedant activity against newly ecdysed fifth-instar larval stage of Spodoptera littoralis in compound-pretreated lettuce leaf disks assessed as consumed area of leaf disks at 1 ug/cm'2 measured at 30 min intervals for 4-5 hr post-drug exposure by choice test; format: functional
Spodoptera littoralis [4] = assay: Antifeedant activity against newly ecdysed fifth-instar larval stage of Spodoptera littoralis in compound-pretreated lettuce leaf disks assessed as consumed area of leaf disks at 10 ug/cm'2 measured at 30 min intervals for 4-5 hr post-drug exposure by choice test; format: functional
Spodoptera littoralis [5] = assay: Antifeedant activity against newly ecdysed fifth-instar larval stage of Spodoptera littoralis in compound-pretreated lettuce leaf disks assessed as consumed area of leaf disks at 0.1 ug/cm'2 measured at 30 min intervals for 4-5 hr post-drug exposure by choice test; format: functional

| Molecule | LD100 (Spodoptera littoralis [1]) | Activity (Spodoptera littoralis [2]) | FR50 (Spodoptera littoralis [3]) | FR50 (Spodoptera littoralis [4]) | FR50 (Spodoptera littoralis [5]) |
| --- | --- | --- | --- | --- | --- |
| CC(=O)OCC1CCOC1 (stereo unspecified) | inactive | inactive |  |  |  |
| CC(=O)O[C@@H]1[C@H]2C[C@H](OC(=O)c3ccccc3)[C@]3(O)[C@@H](OC(C)=O)[C@@H](C(C)=O)CC(C)[C@@]13OC2(C)C (stereo partly specified) |  |  | 0.54 | 0.19 |  |
| OCC1CCOC1 (stereo unspecified) | inactive | inactive |  |  |  |
| CC(=O)O[C@H]1CCC(C)[C@]23OC(C)(C)[C@H]([C@@H](C(C)=O)[C@H](OC(=O)c4ccccc4)[C@]12OC(C)=O)[C@H]3OC(C)=O (stereo partly specified) |  |  | 0.44 | 0.04 |  |
| COCCCC[C@@H]1[C@@H]2[C@@H](OC(C)=O)[C@@]3(OC2(C)C)[C@](OC(C)=O)([C@@H]1OC(=O)c1ccccc1)[C@@H](O)CC[C@]3(C)O |  |  | 0.23 | 0.08 | 0.57 |
| CC(=O)O[C@@H]1[C@H]2C[C@H](OC(=O)c3ccccc3)[C@]3(C)[C@@H](OC(=O)c4ccccc4)[C@H](C(C)=O)[C@H](C(C)=O)[C@](C)(O)[C@@]13OC2(C)C |  |  |  | 0.65 |  |
| OCC1CCCO1 (stereo unspecified) | inactive | inactive |  |  |  |
| CC(=O)O[C@H]1C[C@@H]2[C@@H](OC(=O)c3cccnc3)[C@@]3(OC2(C)C)[C@@]1(C)[C@@H](OC(=O)c1ccccc1)CC[C@]3(C)O |  |  |  | 0.68 |  |
| CC(=O)O[C@H]1[C@H](OC(=O)c2ccccc2)[C@@]2(C)[C@@H](OC(=O)c3ccccc3)C[C@H]3C[C@]2(OC3(C)C)[C@@](C)(O)[C@H]1O |  |  |  | 0.61 |  |
| CC(=O)O[C@@H]1[C@H]2C[C@H](OC(=O)c3ccccc3)[C@]3(OC(C)=O)[C@@H](OC(C)=O)[C@@H](C(C)=O)CC(C)[C@@]13OC2(C)C (stereo partly specified) |  |  |  | 0.36 |  |
| CC(=O)O[C@H]1C[C@](C)(O)[C@]23OC(C)(C)[C@H]([C@@H](C(C)=O)[C@@H](OC(=O)c4ccccc4)[C@]2(OC(C)=O)[C@H]1OC(=O)c1ccccc1)[C@H]3O |  |  | 0.19 | 0.1 | 1.02 |
| CC(=O)O[C@@H]1[C@H]2C(=O)[C@@H](OC(=O)c3ccccc3)[C@]3(O)[C@@H](OC(C)=O)[C@@H](C(C)=O)CC(C)[C@@]13OC2(C)C (stereo partly specified) |  |  |  | 0.41 |  |
| OC1CCOC1 (racemic) | inactive | inactive |  |  |  |
| CC(=O)O[C@H]1C[C@](C)(O)[C@]23OC(C)(C)[C@H](C(=O)[C@@H](OC(=O)c4ccccc4)[C@]2(OC(C)=O)[C@H]1OC(=O)c1ccccc1)[C@H]3OC(C)=O | 0.1 microg/cm2 |  |  |  |  |
| CC(=O)O[C@H]1C[C@](C)(O)[C@]23OC(C)(C)[C@H]([C@@H](C(C)=O)[C@@H](OC(=O)c4ccccc4)[C@]2(OC(C)=O)[C@H]1OC(C)=O)[C@H]3OC(C)=O |  |  | 0.24 | 0.05 | 0.4 |
| CC(=O)OC1CCOC1 (single isomer, unassigned; (+)) | inactive | inactive |  |  |  |
| CC(=O)OCC1CCCO1 (stereo unspecified) | inactive | inactive |  |  |  |
| CC(=O)O[C@H]1CCC(C)[C@]23OC(C)(C)[C@H]([C@@H](O)[C@H](OC(=O)c4ccccc4)[C@]12OC(C)=O)[C@H]3OC(C)=O (stereo partly specified) |  |  | 0.25 | 0.05 |  |
| CC(=O)O[C@H]1[C@H](OC(=O)c2ccccc2)[C@@]2(C)[C@@H](OC(=O)c3ccccc3)C[C@@H]3[C@@H](O)[C@]2(OC3(C)C)[C@@](C)(O)[C@H]1O |  |  |  | 0.6 |  |
| CC(=O)O[C@H]1CC[C@](C)(O)[C@]23OC(C)(C)[C@H](C[C@H](OC(=O)c4ccccc4)[C@]12OC(C)=O)[C@H]3OC(C)=O |  |  | 0.12 | 0.11 | 0.4 |
| O=C(OC1CCOC1)c1cc([N+](=O)[O-])cc([N+](=O)[O-])c1 (racemic) | inactive | inactive |  |  |  |
| O=C(OC1CCOC1)c1ccccc1 (racemic) | inactive | inactive |  |  |  |
| CC(=O)O[C@@H]1[C@@H]2[C@@H](OC(C)=O)[C@@]3(OC2(C)C)[C@@](OC(C)=O)([C@@H](OC(C)=O)CC[C@]3(C)O)[C@@H]1OC(=O)c1ccccc1 |  |  | 0.2 | 0.03 | 0.64 |
| TRIPHENYLSTANNYL ACETATE |  |  |  | 0.37 |  |
| CCC(C)C(=O)OC (single isomer, unassigned; (+)) | inactive | inactive |  |  |  |
| CC(=O)O[C@@H]1[C@H]2[C@@H](OC(=O)c3ccccc3)[C@@H](OC(=O)c3ccccc3)[C@]3(OC(C)=O)[C@@H](OC(=O)c4ccccc4)CC[C@](C)(O)[C@@]13OC2(C)C |  |  |  | 0.76 |  |

| Molecule | LD100 (Spodoptera littoralis [1]) | Activity (Spodoptera littoralis [2]) | FR50 (Spodoptera littoralis [3]) | FR50 (Spodoptera littoralis [4]) | FR50 (Spodoptera littoralis [5]) |
| --- | --- | --- | --- | --- | --- |
| C/C=C(/C)C(=O)O[C@@H]1[C@@H]2[C@@H](OC(C)=O)[C@@]3(OC2(C)C)[C@@](OC(C)=O)([C@@H](OC(C)=O)CC[C@]3(C)O)[C@@H]1OC(=O)c1ccccc1 |  |  | 0.2 | 0.06 |  |
| CCC(C)C(=O)OC (stereo in doubt; 54) | inactive | inactive |  |  |  |
| CC(=O)O[C@@H]1[C@H]2C[C@H](OC(=O)c3ccccc3)[C@]3(C)[C@@H](OC(=O)c4ccccc4)[C@H](C(C)=O)C[C@](C)(O)[C@@]13OC2(C)C |  |  |  | 0.35 |  |
| CC(=O)O[C@H]1CC[C@](C)(O)[C@]23OC(C)(C)[C@H]([C@@H](OC(=O)c4ccccc4)[C@@H](OC(=O)c4ccccc4)[C@]12OC(C)=O)[C@H]3OC(C)=O |  |  | 0.4 | 0.15 |  |
| CC(=O)O[C@H]1[C@H](OC(=O)c2ccccc2)[C@@]2(C)[C@@H](O/C=C/c3ccccc3)C[C@@H]3[C@@H](OC(C)=O)[C@]2(OC3(C)C)[C@@](C)(O)[C@H]1O |  |  |  | 0.76 |  |
| CC(=O)OC1CCOC1 (racemic) | inactive | inactive |  |  |  |
| CC(=O)O[C@@H]1[C@@H]2[C@@H](OC(C)=O)[C@]3(OC2(C)C)C(C)C[C@H](C(C)=O)[C@H](OC(C)=O)[C@@]3(OC(C)=O)[C@H]1OC(=O)c1ccccc1 (stereo partly specified) |  |  | 0.53 | 0.07 |  |
| CC(=O)O[C@H]1C[C@](C)(O)[C@]23OC(C)(C)[C@H]([C@@H](C(C)=O)[C@@H](OC(=O)c4ccccc4)[C@]2(OC(C)=O)[C@H]1OC(=O)c1ccccc1)[C@H]3OC(C)=O |  |  |  | 0.35 |  |
| CC(=O)O[C@H]1[C@@H]2[C@@H](O)[C@@]3(OC2(C)C)[C@](C)([C@H]1OC(=O)c1ccccc1)[C@@H](OC(=O)c1ccccc1)[C@H](OC(C)=O)[C@H](OC(C)=O)[C@]3(C)O |  |  |  | 0.38 |  |
| CC1(C)O[C@]23C[C@@H]1CC[C@]2(C)CC[C@H](O)[C@@]3(C)O |  |  |  | 0.52 |  |
| C/C=C(/C)C(=O)O[C@@H]1[C@@H]2[C@@H](OC(C)=O)[C@@]3(OC2(C)C)[C@@](OC(C)=O)([C@@H](OC(=O)c2ccccc2)CC[C@]3(C)O)[C@@H]1OC(=O)c1ccccc1 |  |  | 0.29 | 0.12 |  |
| CC(=O)O[C@H]1C[C@](C)(O)[C@]23OC(C)(C)[C@H](C(=O)[C@@H](OC(=O)c4ccccc4)[C@]2(OC(C)=O)[C@H]1OC(C)=O)[C@H]3OC(C)=O | 1 microg/cm2 |  |  |  |  |
| CC(=O)O[C@@H]1[C@H]2C[C@H](OC(=O)c3ccccc3)[C@]3(C)[C@@H](OC(=O)c4ccccc4)[C@H](C(C)=O)[C@H](O)C(C)[C@@]13OC2(C)C (stereo partly specified) |  |  |  | 0.63 |  |
| COCCCC[C@@H]1[C@@H]2[C@@H](OC(C)=O)[C@@]3(OC2(C)C)[C@@](OC(C)=O)([C@@H](OC(=O)c2ccccc2)CC[C@]3(C)O)[C@@H]1OC(=O)c1ccccc1 |  |  |  | 0.45 |  |
| O=C(OCC1CCCO1)c1ccccc1 (stereo unspecified) | inactive | inactive |  |  |  |
| CC(=O)O[C@@H]1[C@@H](O)[C@@H]2[C@@H](OC(=O)c3cccnc3)[C@@]3(OC2(C)C)[C@@]1(C)[C@@H](OC(=O)c1ccccc1)CC[C@]3(C)O |  |  |  | 0.74 |  |
| CC(=O)O[C@@H]1[C@@H]2[C@@H](OC(C)=O)[C@@]3(OC2(C)C)[C@](O)([C@@H]1OC(=O)c1ccccc1)[C@@H](OC(C)=O)[C@@H](C(C)=O)C[C@]3(C)O |  |  | 0.66 | 0.16 |  |
| CC(=O)O[C@@H]1[C@@H]2[C@@H](OC(C)=O)[C@@]3(OC2(C)C)[C@@](OC(C)=O)([C@@H](OC(=O)c2ccccc2)CC[C@]3(C)O)[C@@H]1OC(=O)c1ccccc1 |  |  | 0.58 | 0.24 |  |
| CC[C@@H]1CCC(=O)O[C@H]2[C@H](OC(C)=O)[C@H](OC(C)=O)[C@@]3(OC(C)=O)[C@H](OC(C)=O)C(=O)[C@@H]4[C@@H](OC(C)=O)[C@]3(O[C@@]4(C)COC(=O)c3ccccc31)[C@@]2(C)O [ORTHOSPHENINE] | 0.01 microg/cm2 |  |  |  |  |
| CC(=O)O[C@@H]1[C@H]2C[C@H](OC(=O)c3ccccc3)[C@]3(C)[C@@H](OC(=O)c4ccccc4)[C@H](O)[C@H](C(C)=O)[C@](C)(O)[C@@]13OC2(C)C |  |  |  | 0.56 |  |
| CC(=O)O[C@@H]1[C@@H]2[C@@H](OC(C)=O)[C@]3(OC2(C)C)C(C)C[C@H](C(C)=O)[C@H](OC(C)=O)[C@@]3(O)[C@H]1OC(=O)c1ccccc1 (stereo partly specified) |  |  | 0.71 | 0.13 |  |
| OC1CCOC1 (stereo in doubt; 46) | inactive | inactive |  |  |  |
| CC(=O)O[C@H]1[C@H](OC(=O)c2ccccc2)[C@@]2(C)[C@@H](OC(=O)c3ccccc3)C[C@@H]3[C@@H](OC(C)=O)[C@]2(OC3(C)C)[C@@](C)(O)[C@H]1O [2BETA,3BETA,4BETA,TRIHYDROXYCELARBICO] |  |  | 0.44 | 0.24 |  |
| CC(=O)O[C@H]1C[C@](C)(O)[C@]23OC(C)(C)[C@H]([C@@H](OC(C)=O)[C@@H](OC(=O)c4ccccc4)[C@]2(OC(C)=O)C1)[C@H]3OC(C)=O |  |  | 0.18 | 0.1 | 1.1 |
| O=C(OCC1CCCO1)c1cc([N+](=O)[O-])cc([N+](=O)[O-])c1 (stereo unspecified) | inactive | inactive |  |  |  |
| CC(=O)O[C@H]1[C@@H]2[C@@H](OC(=O)c3cccnc3)[C@@]3(OC2(C)C)[C@@](C)([C@@H](OC(=O)c2ccccc2)CC[C@]3(C)O)[C@@H]1OC(C)=O |  |  | 0.15 | 0.04 | 0.45 |
